We go through six compounds from ChEMBL document CHEMBL1129269, “1-aryl-4-[(1-tetralinyl)alkyl]piperazines: alkylamido and alkylamino derivatives. Synthesis, 5-HT1A receptor affinity, and selectivity. 3” (J Med Chem, 1996).

The structures appear in SMILES notation. pIC50: −log10 of the molar value.

The target in assay [1] is T1, 5-hydroxytryptamine receptor 1A (Rattus norvegicus, UniProt P19327).
T1 sequence (P19327 whole entry): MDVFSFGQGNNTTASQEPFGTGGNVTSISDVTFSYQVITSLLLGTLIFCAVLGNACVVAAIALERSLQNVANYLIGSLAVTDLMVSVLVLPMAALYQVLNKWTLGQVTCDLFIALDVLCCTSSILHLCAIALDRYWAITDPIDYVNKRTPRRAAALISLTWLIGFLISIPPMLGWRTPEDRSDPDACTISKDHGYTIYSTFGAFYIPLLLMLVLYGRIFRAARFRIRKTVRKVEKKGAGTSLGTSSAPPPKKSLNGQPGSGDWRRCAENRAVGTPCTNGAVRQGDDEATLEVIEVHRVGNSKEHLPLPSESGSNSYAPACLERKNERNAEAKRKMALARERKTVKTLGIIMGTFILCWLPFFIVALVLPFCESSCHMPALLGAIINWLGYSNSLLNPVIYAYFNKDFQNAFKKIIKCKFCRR
Nature of the assay: Binding affinity against serotonin 5-hydroxytryptamine 1A receptor in rat hippocampus membrane using [3H]8-OH-DPAT as radioligand. Format: cell membranes.

For assay [2], the target named is Serotonin 2 (5-HT2) receptor (Rattus norvegicus, UniProt P30994+P08909+P14842). Nature of the assay: Binding affinity against 5-hydroxytryptamine 2 receptor in rat brain using [3H]ketanserin as radioligand. It is filed as tissue-based.
Assay [3] has as its target T2, Adrenergic receptor alpha-2 (Rattus norvegicus, UniProt P22086+P19328+P22909).
T2 sequence (P22086 whole entry): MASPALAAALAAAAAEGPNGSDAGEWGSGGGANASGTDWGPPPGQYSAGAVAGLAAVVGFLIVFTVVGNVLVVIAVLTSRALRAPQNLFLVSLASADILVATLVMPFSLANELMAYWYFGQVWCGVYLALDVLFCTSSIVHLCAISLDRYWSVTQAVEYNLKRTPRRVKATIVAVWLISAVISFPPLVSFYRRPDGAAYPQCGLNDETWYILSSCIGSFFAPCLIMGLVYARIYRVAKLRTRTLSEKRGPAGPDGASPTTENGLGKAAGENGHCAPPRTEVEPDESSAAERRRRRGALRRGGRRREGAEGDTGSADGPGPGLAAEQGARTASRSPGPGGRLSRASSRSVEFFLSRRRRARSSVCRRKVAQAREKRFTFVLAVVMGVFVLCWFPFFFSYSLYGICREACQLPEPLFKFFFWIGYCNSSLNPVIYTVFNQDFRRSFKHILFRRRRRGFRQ
T2 sequence (P19328 whole entry): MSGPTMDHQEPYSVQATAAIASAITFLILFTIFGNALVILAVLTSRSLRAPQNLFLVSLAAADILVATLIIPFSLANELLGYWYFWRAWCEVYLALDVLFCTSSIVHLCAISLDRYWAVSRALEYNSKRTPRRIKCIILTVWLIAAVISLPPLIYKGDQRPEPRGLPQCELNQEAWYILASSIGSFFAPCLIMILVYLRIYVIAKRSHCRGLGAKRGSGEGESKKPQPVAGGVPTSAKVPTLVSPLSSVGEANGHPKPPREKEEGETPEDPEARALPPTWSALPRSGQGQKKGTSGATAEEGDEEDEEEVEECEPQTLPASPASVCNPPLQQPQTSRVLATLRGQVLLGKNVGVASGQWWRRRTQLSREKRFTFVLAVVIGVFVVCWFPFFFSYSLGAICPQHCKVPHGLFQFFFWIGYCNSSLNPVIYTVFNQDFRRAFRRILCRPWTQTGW
T2 sequence (P22909 whole entry): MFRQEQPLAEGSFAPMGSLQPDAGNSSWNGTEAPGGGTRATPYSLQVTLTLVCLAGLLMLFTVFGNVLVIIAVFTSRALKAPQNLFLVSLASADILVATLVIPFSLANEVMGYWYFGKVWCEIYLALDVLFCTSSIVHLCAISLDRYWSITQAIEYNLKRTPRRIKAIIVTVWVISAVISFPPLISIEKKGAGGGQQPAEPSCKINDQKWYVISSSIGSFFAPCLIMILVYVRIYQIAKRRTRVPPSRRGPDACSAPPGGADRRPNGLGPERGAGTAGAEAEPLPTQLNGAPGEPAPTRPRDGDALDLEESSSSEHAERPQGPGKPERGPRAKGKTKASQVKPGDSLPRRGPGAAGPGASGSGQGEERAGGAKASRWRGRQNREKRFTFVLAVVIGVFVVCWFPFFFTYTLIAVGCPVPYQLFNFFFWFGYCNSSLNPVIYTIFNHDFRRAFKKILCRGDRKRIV
Nature of the assay: Binding affinity against Alpha-2 adrenergic receptor in rat brain membrane using [3H]yohimbine as radioligand. Format: cell membranes.

Assay [4] addresses T3, Adrenergic receptor alpha-1 (Rattus norvegicus, UniProt P15823+P23944+P43140).
T3 sequence (P15823 whole entry): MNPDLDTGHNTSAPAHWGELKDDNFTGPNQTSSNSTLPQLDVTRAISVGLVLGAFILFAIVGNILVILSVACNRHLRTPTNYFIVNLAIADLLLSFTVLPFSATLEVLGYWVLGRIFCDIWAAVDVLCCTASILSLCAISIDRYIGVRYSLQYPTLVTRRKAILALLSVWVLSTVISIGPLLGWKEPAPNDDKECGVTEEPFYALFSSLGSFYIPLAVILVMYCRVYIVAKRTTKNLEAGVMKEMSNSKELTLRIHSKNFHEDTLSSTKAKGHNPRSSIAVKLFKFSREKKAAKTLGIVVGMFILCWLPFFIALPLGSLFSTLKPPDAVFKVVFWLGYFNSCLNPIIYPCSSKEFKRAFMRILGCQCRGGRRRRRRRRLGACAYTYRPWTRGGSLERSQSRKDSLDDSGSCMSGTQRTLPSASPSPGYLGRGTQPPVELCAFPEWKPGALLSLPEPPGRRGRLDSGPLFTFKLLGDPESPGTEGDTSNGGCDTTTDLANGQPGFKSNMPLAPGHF
T3 sequence (P23944 whole entry): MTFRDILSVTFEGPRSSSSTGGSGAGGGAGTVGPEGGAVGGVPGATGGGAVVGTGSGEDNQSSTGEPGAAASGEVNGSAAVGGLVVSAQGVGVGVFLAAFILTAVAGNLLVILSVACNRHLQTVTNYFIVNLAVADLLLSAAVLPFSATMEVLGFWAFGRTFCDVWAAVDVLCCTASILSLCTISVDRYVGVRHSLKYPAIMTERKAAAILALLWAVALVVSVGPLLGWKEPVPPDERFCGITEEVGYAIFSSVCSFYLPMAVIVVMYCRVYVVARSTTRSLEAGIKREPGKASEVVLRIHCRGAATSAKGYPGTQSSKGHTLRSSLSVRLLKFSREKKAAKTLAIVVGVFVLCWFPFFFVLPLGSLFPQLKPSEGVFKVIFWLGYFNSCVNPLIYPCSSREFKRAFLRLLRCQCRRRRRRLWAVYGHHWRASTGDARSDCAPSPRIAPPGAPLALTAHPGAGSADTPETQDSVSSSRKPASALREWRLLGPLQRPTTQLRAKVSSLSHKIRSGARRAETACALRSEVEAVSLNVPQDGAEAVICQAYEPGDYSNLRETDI
T3 sequence (P43140 whole entry): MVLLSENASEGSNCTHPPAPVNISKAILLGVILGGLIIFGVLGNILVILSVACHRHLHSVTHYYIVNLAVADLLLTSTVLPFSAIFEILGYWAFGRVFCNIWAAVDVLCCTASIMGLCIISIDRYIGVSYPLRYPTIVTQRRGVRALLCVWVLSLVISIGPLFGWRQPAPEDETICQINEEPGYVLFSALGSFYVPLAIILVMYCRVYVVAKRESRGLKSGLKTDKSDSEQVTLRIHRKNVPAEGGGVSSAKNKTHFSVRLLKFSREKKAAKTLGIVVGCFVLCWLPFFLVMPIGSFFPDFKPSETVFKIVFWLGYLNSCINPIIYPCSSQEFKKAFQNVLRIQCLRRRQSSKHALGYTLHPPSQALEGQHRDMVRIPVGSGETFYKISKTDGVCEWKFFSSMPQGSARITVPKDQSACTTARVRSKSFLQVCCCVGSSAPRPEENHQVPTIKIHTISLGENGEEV
Nature of the assay: Binding affinity against Alpha-1 adrenergic receptor in rat brain membrane using [3H]prazosin as radioligand. It is filed as cell membranes.

The target in assay [5] is T4, D(2) dopamine receptor (Rattus norvegicus, UniProt P61169). Nature of the assay: biochemical.
Description: Binding affinity to rat Dopamine receptor D2 expressed in CHO cells was determined using [125 I ] iodosulpride as radioligand
Assay [6] has as its target T1, 5-hydroxytryptamine receptor 1A. Description: Binding affinity against 5-hydroxytryptamine 1A receptor in rat hippocampus membranes using [3H]8-OH-DPAT as radioligand. Format: cell membranes, Membrane.
In assay [7] the target is T4, D(2) dopamine receptor. Description: Compound was evaluated for their affinity against Dopamine receptor D2 by displacing [3H]spiperone in rat striatal membrane. Format: cell membranes, Striatum.
In assay [8] the target is T4, D(2) dopamine receptor. Nature of the assay: Binding affinity against Dopamine receptor D2 in rat striatal membrane using [3H]spiroperidol as radioligand. It is filed as cell membranes, Striatum.

T4 sequence (P61169 whole entry): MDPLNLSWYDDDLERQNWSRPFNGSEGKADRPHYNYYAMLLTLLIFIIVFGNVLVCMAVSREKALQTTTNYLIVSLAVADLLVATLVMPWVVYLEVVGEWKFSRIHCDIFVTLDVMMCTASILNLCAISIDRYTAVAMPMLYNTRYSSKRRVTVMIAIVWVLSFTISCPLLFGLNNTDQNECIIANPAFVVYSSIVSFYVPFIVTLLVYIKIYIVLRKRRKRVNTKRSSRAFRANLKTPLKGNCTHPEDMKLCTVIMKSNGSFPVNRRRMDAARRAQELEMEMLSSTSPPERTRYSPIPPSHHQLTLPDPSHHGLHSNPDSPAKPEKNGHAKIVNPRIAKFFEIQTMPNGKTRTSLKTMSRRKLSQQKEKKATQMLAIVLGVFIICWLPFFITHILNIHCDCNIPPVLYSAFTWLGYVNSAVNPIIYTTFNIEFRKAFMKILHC

Turning to `COc1cccc2c1CCCC2CCCN1CCN(c2ccccn2)CC1` (stereo not drawn), the figures for the pIC50 (in assay [1]; on D(2) dopamine receptor [5]) were 9.27 and 6.85, respectively. The figures for the IC50 in assay [2], in assay [3] and in assay [4] were 250 nM, 48 nM and 66 nM, respectively.
Consider `COc1ccccc1N1CCN(CCNC2CCCc3c(OC)cccc32)CC1` (stereo not drawn), for which the results for the pIC50 (in assay [6]; at D(2) dopamine receptor [7]) were 8.11 and 6.42, respectively. The results for the IC50 in assay [2], in assay [3] and in assay [4] were 2580 nM, 280 nM and 220 nM, respectively.
As to `CCCN(CCC)C1CCc2cccc(O)c2C1` (stereo not drawn) [8-OH-DPAT], the IC50 in assay [2] is given as greater than 10000 nM; in assay [3] it was 810 nM. The compound also had a negative-log IC50 (pIC50) on D(2) dopamine receptor [5] of 8.28.
`COc1cccc2c1CCCC2C(=O)NCCCN1CCN(c2ccccc2)CC1` (stereo not drawn): the pIC50 in assay [1] was 7.20; on D(2) dopamine receptor [8], 6.11. Also, the values for the IC50 in assay [2], in assay [3] and in assay [4] were 349 nM, 186 nM and 19 nM, respectively.
Consider `COc1cccc2c1CCCC2CCCN1CCN(c2ccccc2)CC1` (stereo not drawn), for which the pIC50 is 9.30 in assay [1] and 6.96 on D(2) dopamine receptor [5]. Besides, the IC50 in assay [2] is recorded as 230 nM; in assay [3], 260 nM; in assay [4], 43 nM.
With `COc1cccc2c1CCCC2C(=O)NCCN1CCN(c2ccccc2)CC1` (stereo not drawn), the pIC50 in assay [1] was 6.38; at D(2) dopamine receptor [8], 5.39. Further, the half-inhibitory concentration (IC50) in assay [2] is given as 1560 nM; in assay [3], 1850 nM; in assay [4] it was 427 nM.

The pIC50 is the negative decadic logarithm of the IC50, by convention in mol/L. A higher pIC50 goes with a small IC50. The term IC50 denotes the point on the concentration scale where inhibition reaches its midpoint. The low end stands for greater potency, the high end for weaker potency.
